# How the values were obtained:
# [1] = test system: NCI-H358 cells (K-Ras G12C); experiment: CellTiter-Glo cell viability, NCI-H358; format: cell-based, human; conditions: Homo sapiens, NCI-H358, 120 h, K-Ras G12C, 5-day treatment; read-out: H358 Cell Viability IC50
# Description: Note—The following protocol describes a procedure for monitoring cell viability of K-Ras mutant cancer cell lines in response to a compound of the invention. Other RAS isoforms may be employed, though the number of cells to be seeded will vary based on cell line used.
# Test compounds (132.5 nl) were directly dispensed into the assay plates containing cells. […] On day 5, assay plates and their contents were equilibrated to room temperature for approximately 30 minutes. […] Luminescence was measured using the PerkinElmer Enspire. Data were normalized by the following: (Sample signal/Avg. DMSO)*100. The data were fit using a four-parameter logistic fit.
# [2] = test system: Capan-1 cells (K-Ras G12V); experiment: CellTiter-Glo cell viability, Capan-1; format: cell-based, human; conditions: Homo sapiens, CAPAN-1, 120 h, K-Ras G12V, 5-day treatment; read-out: Capan-1 Cell Viability IC50
# Outline: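 Viability read by luminescence on day 5 after direct compound addition to cells, following ~30 min room-temperature equilibration. Values expressed as percent of mean DMSO signal, curves fitted with a four-parameter logistic model.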
# [3] = test system: K-Ras G12C (NCI-H358 cells); experiment: Potency assay: pERK in NCI-H358 cells; format: cell-based, human; conditions: Homo sapiens; NCI-H358 cells, 4 hours; read-out: pERK EC50 (H358 KRAS G12C)
# Outline: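 Cells plated the day before were exposed for 4 h at 37° C, 5% CO2 to a 10-point, 3-fold DMSO dilution series (10 mM top stock), in duplicate. Phospho-ERK was read by AlphaLISA SureFire Ultra or by In-Cell Western with DRAQ5 DNA stain, and IC50 came from a 4-parameter sigmoidal fit.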
# KRAS G12C = KRAS G12C (Homo sapiens (Human), UniProt P01116+P62937, G12C); experiment: Ras-Raf disruption/FRET/MOA assay (BRAF RBD, Cyclophilin A); format: biochemical; conditions: read-out: KRAS G12C FRET IC50
# KRAS G12C, sequence (P01116-2 other isoform, or with tags, fused parts or gaps G12C): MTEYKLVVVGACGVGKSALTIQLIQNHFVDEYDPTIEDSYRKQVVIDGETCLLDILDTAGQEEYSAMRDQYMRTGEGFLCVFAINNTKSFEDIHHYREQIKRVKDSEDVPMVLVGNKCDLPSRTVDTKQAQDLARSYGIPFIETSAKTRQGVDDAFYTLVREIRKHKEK
# KRAS G12C, sequence (P62937 whole entry): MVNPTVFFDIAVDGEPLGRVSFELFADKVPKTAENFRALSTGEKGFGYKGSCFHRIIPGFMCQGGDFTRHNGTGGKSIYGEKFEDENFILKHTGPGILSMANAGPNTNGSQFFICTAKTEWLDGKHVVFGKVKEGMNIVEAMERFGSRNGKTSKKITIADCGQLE
# Outline: (§1)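 TR-FRET readout: anti-His Eu-W1024 (10 nM) and anti-GST allophycocyanin (50 nM) added after 3 h, 25° C compound incubation, then 1.5 h more. Decrease in FRET ratio versus DMSO wells marks Ras:RAF disruption; IC50 reported.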
# KRAS G12D = KRAS G12D (Homo sapiens (Human), UniProt P01116+P62937, G12D); experiment: as above; format: biochemical; conditions: read-out: KRAS G12D FRET IC50
# KRAS G12D, sequence (P01116 other isoform, or with tags, fused parts or gaps G12D): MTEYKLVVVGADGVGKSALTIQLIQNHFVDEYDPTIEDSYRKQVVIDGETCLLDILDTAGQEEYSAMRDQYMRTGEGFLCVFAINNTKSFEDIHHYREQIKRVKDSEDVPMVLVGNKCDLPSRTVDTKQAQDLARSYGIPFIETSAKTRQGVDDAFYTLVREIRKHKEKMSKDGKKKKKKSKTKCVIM
# KRAS G12D, sequence (P62937 whole entry): as the sequence (P62937 whole entry) above
# Outline: as §1
# KRAS G12S = KRAS G12S (Homo sapiens (Human), UniProt P01116+P62937, G12S); experiment: as above; format: biochemical; conditions: read-out: KRAS G12S FRET IC50
# KRAS G12S, sequence (P01116 other isoform, or with tags, fused parts or gaps G12S): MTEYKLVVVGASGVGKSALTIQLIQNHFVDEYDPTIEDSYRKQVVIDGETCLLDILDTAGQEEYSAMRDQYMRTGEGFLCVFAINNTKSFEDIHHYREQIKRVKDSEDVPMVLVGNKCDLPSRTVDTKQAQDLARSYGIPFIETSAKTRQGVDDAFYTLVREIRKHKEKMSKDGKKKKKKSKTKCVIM
# KRAS G12S, sequence (P62937 whole entry): as the sequence (P62937 whole entry) above
# Outline: as §1
# KRAS G12V = KRAS G12V (Homo sapiens (Human), UniProt P01116+P62937, G12V); experiment: as above; format: biochemical; conditions: read-out: KRAS G12V FRET IC50
# KRAS G12V, sequence (P01116 other isoform, or with tags, fused parts or gaps G12V): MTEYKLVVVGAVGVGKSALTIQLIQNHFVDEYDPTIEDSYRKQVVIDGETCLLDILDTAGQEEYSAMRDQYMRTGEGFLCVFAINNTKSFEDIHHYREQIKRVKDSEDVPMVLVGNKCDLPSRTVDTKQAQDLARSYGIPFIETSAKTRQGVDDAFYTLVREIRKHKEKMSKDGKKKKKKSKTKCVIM
# KRAS G12V, sequence (P62937 whole entry): as the sequence (P62937 whole entry) above
# Outline: as §1
# KRAS G13C = KRAS G13C (Homo sapiens (Human), UniProt P01116+P62937, G13C); experiment: as above; format: biochemical; conditions: read-out: KRAS G13C FRET IC50
# KRAS G13C, sequence (P01116 other isoform, or with tags, fused parts or gaps G13C): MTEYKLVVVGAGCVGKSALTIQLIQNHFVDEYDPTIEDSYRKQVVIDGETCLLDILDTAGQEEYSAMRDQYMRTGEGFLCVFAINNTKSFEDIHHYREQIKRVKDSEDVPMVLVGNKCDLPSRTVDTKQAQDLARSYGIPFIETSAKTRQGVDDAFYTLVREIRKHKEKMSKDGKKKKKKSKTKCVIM
# KRAS G13C, sequence (P62937 whole entry): as the sequence (P62937 whole entry) above
# Outline: as §1
# KRAS G13D = KRAS G13D (Homo sapiens (Human), UniProt P01116+P62937, G13D); experiment: as above; format: biochemical; conditions: read-out: KRAS G13D FRET data IC50
# KRAS G13D, sequence (P01116 other isoform, or with tags, fused parts or gaps G13D): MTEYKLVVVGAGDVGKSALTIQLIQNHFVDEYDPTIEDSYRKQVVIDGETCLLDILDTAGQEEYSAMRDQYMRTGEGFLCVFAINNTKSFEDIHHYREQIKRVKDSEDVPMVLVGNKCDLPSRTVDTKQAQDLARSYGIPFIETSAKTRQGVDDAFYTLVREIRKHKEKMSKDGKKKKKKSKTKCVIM
# KRAS G13D, sequence (P62937 whole entry): as the sequence (P62937 whole entry) above
# Outline: as §1
# KRAS WT = KRAS WT (Homo sapiens (Human), UniProt P01116+P62937); experiment: as above; format: biochemical; conditions: read-out: KRAS WT FRET data IC50
# KRAS WT, sequence (P01116 other isoform, or with tags, fused parts or gaps): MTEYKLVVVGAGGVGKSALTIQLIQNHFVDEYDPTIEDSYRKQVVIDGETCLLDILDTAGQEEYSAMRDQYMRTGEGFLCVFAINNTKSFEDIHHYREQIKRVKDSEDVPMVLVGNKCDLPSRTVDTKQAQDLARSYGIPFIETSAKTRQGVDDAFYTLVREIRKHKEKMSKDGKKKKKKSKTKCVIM
# KRAS WT, sequence (P62937 whole entry): as the sequence (P62937 whole entry) above
# Outline: as §1
# NRAS G12C = NRAS G12C (Homo sapiens (Human), UniProt P01111+P62937, G12C); experiment: as above; format: biochemical; conditions: read-out: NRAS G12C FRET data IC50
# NRAS G12C, sequence (P01111 whole entry G12C): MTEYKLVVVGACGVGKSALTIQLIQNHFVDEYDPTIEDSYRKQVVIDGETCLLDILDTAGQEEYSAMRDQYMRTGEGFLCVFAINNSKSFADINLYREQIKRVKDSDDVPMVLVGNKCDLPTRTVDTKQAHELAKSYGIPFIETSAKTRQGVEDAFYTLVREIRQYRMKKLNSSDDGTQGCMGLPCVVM
# NRAS G12C, sequence (P62937 whole entry): as the sequence (P62937 whole entry) above
# Outline: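 TR-FRET read after 1.5 h with 10 nM anti-His Eu-W1024 and 50 nM anti-GST APC, following 3 h at 25 °C of GMPPNP-loaded His6-Ras (12.5 nM), GST-BRAF RBD (50 nM) and Cyclophilin A (25 μM) with compound from 30 μM final, 10 points, 3-fold. IC50 reported; pH 7.3 HEPES, 100 mM NaCl.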
IC50 [1],EC50 [3],IC50 (KRAS G12C),IC50 (KRAS G12D),IC50 (KRAS G12S),IC50 (KRAS G12V),IC50 (KRAS G13C),IC50 (KRAS G13D),IC50 (KRAS WT),IC50 (NRAS G12C),SMILES,IC50 [2]
10 to 100 nM,< 5000 nM,,,,,,,,,CCn1c(-c2cccnc2[C@H](C)OC)c2c3cc(ccc31)-c1csc(n1)C[C@H](NC(=O)[C@H](C(C)C)N(C)C(=O)N1CC[C@@H](O)C1)C(=O)N1CCC[C@H](N1)C(=O)OCC(C)(C)C2 [Compound A376],10 to 100 nM
,< 5000 nM,10 to 100 nM,10 to 100 nM,10 to 100 nM,10 to 100 nM,10 to 100 nM,10 to 100 nM,10 to 100 nM,10 to 100 nM,CCn1c(-c2cccnc2[C@H](C)OC)c2c3cc(ccc31)-c1cc(O)cc(c1)C[C@H](NC(=O)[C@H](C(C)C)N(C)C(=O)[C@H]1CCN(C(=O)[C@]3(C)CCCN3)C1)C(=O)N1CCC[C@H](N1)C(=O)OCC(C)(C)C2 [Compound A380],1000 to 10000 nM
,< 5000 nM,100 to 1000 nM,100 to 1000 nM,100 to 1000 nM,100 to 1000 nM,10 to 100 nM,100 to 1000 nM,100 to 1000 nM,100 to 1000 nM,CCn1c(-c2cccnc2[C@H](C)OC)c2c3cc(ccc31)-c1cc(O)cc(c1)C[C@H](NC(=O)[C@H](C(C)C)N(C)C(=O)[C@H]1CCCC[C@@H]1N)C(=O)N1CCC[C@H](N1)C(=O)OCC(C)(C)C2 [Compound A394],1000 to 10000 nM
,< 5000 nM,10 to 100 nM,10 to 100 nM,10 to 100 nM,100 to 1000 nM,10 to 100 nM,10 to 100 nM,10 to 100 nM,10 to 100 nM,CCn1c(-c2cccnc2[C@H](C)OC)c2c3cc(ccc31)-c1cc(O)cc(c1)C[C@H](NC(=O)[C@H](C(C)C)N(C)C(=O)[C@H]1CCCC[C@H]1N)C(=O)N1CCC[C@H](N1)C(=O)OCC(C)(C)C2 [Compound A419],100 to 1000 nM
10 to 100 nM,< 5000 nM,,,,,,,,,CCn1c(-c2cccnc2[C@H](C)OC)c2c3cc(ccc31)-c1csc(n1)C[C@H](NC(=O)[C@H](C(C)C)N(C)C(=O)N1CC([C@@H](C)N(C)C)C1)C(=O)N1CCC[C@H](N1)C(=O)OCC(C)(C)C2 [Compound A458],10 to 100 nM
10 to 100 nM,< 5000 nM,,,,,,,,,CCn1c(-c2cccnc2[C@H](C)OC)c2c3cc(ccc31)-c1csc(n1)C[C@H](NC(=O)[C@H](C(C)C)N(C)C(=O)N1CCC[C@@H](N(C)C)C1)C(=O)N1CCC[C@H](N1)C(=O)OCC(C)(C)C2 [Compound A531],10 to 100 nM
10 to 100 nM,< 5000 nM,,,,,,,,,CCn1c(-c2cccnc2[C@H](C)OC)c2c3cc(ccc31)-c1csc(n1)C[C@H](NC(=O)[C@H](C(C)C)N(C)C(=O)N(C)[C@@H]1CCCN(C)C1)C(=O)N1CCC[C@H](N1)C(=O)OCC(C)(C)C2 [Compound A587],
10 to 100 nM,< 5000 nM,,,,,,,,,CCn1c(-c2cccnc2[C@H](C)OC)c2c3cc(ccc31)-c1csc(n1)C[C@H](NC(=O)[C@H](C(C)C)N(C)C(=O)N1CCN(C(=O)[C@H]3CCCN3C)CC1)C(=O)N1CCC[C@H](N1)C(=O)OCC(C)(C)C2 [Compound A595],100 to 1000 nM
